These results are taken from PubChem BioAssay AID1224920 (Broad Institute, 2016).

This test has as its system Clostridium difficile clinical isolate growth, OD600, 24 h. The test can be described thus: growth modulation of Clostridium difficile isolate – OD600, 9-point, retest, dose response (AID 1224920).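 Note: inhibitors lower culture turbidity so OD600 falls.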

“And” between values parts separate entries of the source, which are not always exact repeats. Equal values may be shown once.

What is called IC50 is the concentration needed to halve the response being measured.

For `Cc1cccc(-c2ccc([C@@H]3[C@H]4CN(CCC(F)(F)F)CCCCN4[C@H]3CO)cc2)c1`, the IC50 was 66.4 µM.

Regarding `O=S(=O)(c1ccccc1F)N1[C@@H]2CNC[C@H]1C2c1ccc(/C=C/c2ccccc2)cc1` (some centres not stated), the IC50 is 73.5 µM.

For `Cc1ccc(-c2ccc([C@@H]3[C@H](CO)N4CCCCN(S(=O)(=O)c5cccc(C)c5)C[C@@H]34)cc2)cc1`, the IC50 was 18.2 µM.

Regarding `COc1ccccc1-c1ccc(C2[C@@H]3CN(Cc4cccc(F)c4)C[C@H]2N3)cc1` (some centres not stated), the IC50 is 6.88 µM.

On to `COc1cccc(CN2C[C@@H]3N[C@H](C2)C3c2ccc(-c3ccccc3F)cc2)c1` (some centres not stated), for which the IC50 was 9.26 µM and 6.5 µM.

`O=C(Nc1ccc(Cl)cc1)N1[C@@H]2CNC[C@H]1C2c1ccc(-c2ccccc2)cc1` (some centres not stated): the IC50 was 60.4 µM.

`Cc1ccc(S(=O)(=O)N2C[C@@H]3N[C@H](C2)C3c2ccc(/C=C/c3ccccc3)cc2)cc1` (some centres not stated): the half-maximal inhibitory concentration (IC50) is 4.98 µM.

On to `O=S(=O)(Cc1ccccc1)N1CCCCN2[C@@H](CO)[C@@H](c3ccc(-c4ccc(F)cc4)cc3)[C@@H]2C1`, for which the half-maximal inhibitory concentration (IC50) was 38 µM.

Regarding `O=C(C[C@H]1CC[C@H]2[C@@H](COC[C@H](O)CN2C(=O)Nc2ccc(C(F)(F)F)cc2)O1)NC1Cc2ccccc2C1`, the half-maximal inhibitory concentration (IC50) is 3.82 µM.

As for `O=C(C[C@H]1CC[C@H]2[C@@H](COC[C@@H](O)CN2C(=O)Nc2cc(Cl)cc(Cl)c2)O1)N1CCOCC1`, the 50% inhibitory concentration (IC50) is 29.1 µM.

Take `Cc1cccc(S(=O)(=O)N2CCCCN3[C@H](CO)[C@H](c4ccc(C#CC5CC5)cc4)[C@H]3C2)c1`: the IC50 is 27.9 µM.

`Fc1ccccc1-c1ccc(C2[C@@H]3CN(Cc4ccccc4)C[C@H]2N3)cc1` (some centres not stated): the IC50 was 4.68 µM and 7.81 µM.

As to `COc1cccc(CN2[C@@H]3CNC[C@H]2C3c2ccc(-c3cccc(OC)c3)cc2)c1` (some centres not stated), the half-maximal inhibitory concentration (IC50) is 13.3 µM.

For the compound `Cc1cccc(-c2ccc(C3[C@@H]4CN(Cc5cccc(F)c5)C[C@H]3N4)cc2)c1` (some centres not stated), the half-inhibitory concentration (IC50) was 5.89 µM and 8.61 µM.

For `N#Cc1ccc(-c2ccc(C3[C@@H]4CN(Cc5ccccc5F)C[C@H]3N4)cc2)cc1` (some centres not stated), the IC50 was 35.8 µM and 26.1 µM.

Regarding `Fc1ccc(F)c(CN2[C@@H]3CNC[C@H]2C3c2ccc(-c3ccccc3)cc2)c1` (some centres not stated), the concentration for half-maximal inhibition (IC50) is 44.8 µM.

`COc1cccc(CN2C[C@@H]3N[C@H](C2)C3c2ccc(-c3ccccc3OC)cc2)c1` (some centres not stated): the IC50 is 34.1 µM.

`Cc1ccccc1-c1ccc(C2[C@H]3CNC[C@@H]2N3C(=O)Nc2ccc(Cl)cc2)cc1` (some centres not stated): the IC50 is 16.9 µM and 34.3 µM.

For `O=C(C[C@H]1CC[C@H]2[C@@H](COC[C@H](O)CN2C(=O)Nc2ccc(Cl)c(Cl)c2)O1)NC1CCC1`, the IC50 is 3.65 µM.

For `COc1cccc(-c2ccc(C3[C@H]4CNC[C@@H]3N4Cc3ccc4c(c3)OCO4)cc2)c1` (some centres not stated), the IC50 was 30.1 µM.

Consider `O=C(Nc1ccccc1)N1CCCCN2[C@@H](CO)[C@@H](c3ccc(C#Cc4ccccc4)cc3)[C@@H]2C1`, for which the IC50 was 19 µM.

Take `OC[C@@H]1[C@@H](c2ccc(C#CC3CCCC3)cc2)[C@H]2CN(CCC(F)(F)F)CCCCN12`: the IC50 is 26.9 µM.

For the compound `Cc1ccc(-c2ccc(C3[C@H]4CNC[C@@H]3N4S(=O)(=O)c3cccc(C)c3)cc2)cc1` (some centres not stated), the IC50 was 30.3 µM.

Turning to `COc1cccc(CN2[C@@H]3CNC[C@H]2C3c2ccc(-c3ccccc3C)cc2)c1` (some centres not stated), the IC50 is 29.5 µM.

On to `COc1ccccc1NC(=O)N1C[C@@H]2N[C@H](C1)C2c1ccc(/C=C/c2ccccc2)cc1` (some centres not stated), for which the IC50 is 10.7 µM.

Regarding `O=C(C[C@H]1CC[C@H]2[C@@H](COC[C@H](O)CN2C(=O)Nc2cc(Cl)cc(Cl)c2)O1)N1CCOCC1`, the half-maximal inhibitory concentration (IC50) is 15 µM.

Take `O=C(c1cccc(F)c1)N1CC[C@H]2[C@H](CO)Nc3ccc(-c4cccc(F)c4)cc3[C@H]21`: the IC50 is 124 µM.

Turning to `COc1cccc(S(=O)(=O)N2C[C@@H]3N[C@H](C2)C3c2ccc(/C=C/c3ccccc3)cc2)c1` (some centres not stated), the IC50 was 12.7 µM.

In the case of `COc1cccc(-c2ccc(C3[C@@H]4CN(S(=O)(=O)c5cccc(OC)c5)C[C@H]3N4)cc2)c1` (some centres not stated), the IC50 was 24.4 µM.

`C(=C\c1ccc(C2[C@@H]3CN(Cc4ccc5c(c4)OCO5)C[C@H]2N3)cc1)/c1ccccc1` (some centres not stated): the half-inhibitory concentration (IC50) was 6.94 µM and 6.61 µM.

`Cc1ccccc1-c1ccc(C2[C@@H]3CN(C(=O)c4ccc(F)cc4)C[C@H]2N3)cc1` (some centres not stated): the IC50 is 64.6 µM.

Consider `Cc1ccc(S(=O)(=O)N2[C@@H]3CNC[C@H]2C3c2ccc(-c3cccc(F)c3)cc2)cc1` (some centres not stated), for which the IC50 is 52.3 µM.

As for `O=C(NC[C@H]1N[C@H](CO)[C@@H]1c1ccc(C2=CCCC2)cc1)c1ccccc1`, the IC50 was 69.4 µM.

For `Fc1ccc(-c2ccc(C3[C@@H]4CN(Cc5cccc(F)c5)C[C@H]3N4)cc2)cc1` (some centres not stated), the IC50 is 5.47 µM and 20.4 µM.

Regarding `COc1ccccc1CN1C[C@@H]2N[C@H](C1)C2c1ccc(-c2ccccc2)cc1` (some centres not stated), the 50% inhibitory concentration (IC50) was 13.3 µM.

For `O=C(Nc1ccccc1F)N1CCCCN2[C@H](CO)[C@@H](c3ccc(/C=C/c4ccccc4)cc3)[C@H]2C1`, the IC50 is 21.7 µM.

With `COc1ccc(S(=O)(=O)N2[C@@H]3CNC[C@H]2C3c2ccc(-c3cccc(C)c3)cc2)cc1` (some centres not stated), the IC50 is 83 µM.

For `COc1ccccc1NC(=O)N1CCCCN2[C@@H](CO)[C@@H](c3ccc(-c4ccc(C)cc4)cc3)[C@@H]2C1`, the IC50 was 28.7 µM.

Take `Cc1ccc(-c2ccc([C@H]3[C@H](CO)N4CCCCN(C(=O)Nc5cccc(F)c5)C[C@@H]34)cc2)cc1`: the IC50 is 11.2 µM.

In the case of `Cc1ccccc1-c1ccc(C2[C@@H]3CN(C(=O)Nc4cccc(F)c4)C[C@H]2N3)cc1` (some centres not stated), the half-inhibitory concentration (IC50) is 39 µM.

Turning to `O=C(NC1CCCCC1)N1C[C@@H]2N[C@H](C1)C2c1ccc(-c2cccc(F)c2)cc1` (some centres not stated), the IC50 was 61.2 µM.

On to `COc1ccc(C#Cc2ccc([C@@H]3[C@H](CO)N4CCCCN(C(=O)Nc5cccc(F)c5)C[C@@H]34)cc2)cc1`, for which the IC50 was 7.68 µM.

Take `OC[C@H]1Nc2ccc(-c3ccccc3)cc2[C@@H]2[C@H]1CCN2Cc1ccccc1F`: the IC50 was 129 µM.

As to `COc1cccc(-c2ccc(C3[C@@H]4CN(C(=O)c5ccc(F)cc5)C[C@H]3N4)cc2)c1` (some centres not stated), the IC50 is 65.4 µM.

For the compound `N#Cc1cccc(-c2ccc(C3[C@@H]4CN(C(=O)Nc5ccc(C(F)(F)F)cc5)C[C@H]3N4)cc2)c1` (some centres not stated), the IC50 is 11.8 µM and 7.72 µM.

Consider `COc1ccccc1C#Cc1ccc2c(c1)[C@H]1[C@H](CCN1C(=O)c1ccc(F)cc1)[C@H](CO)N2`, for which the half-inhibitory concentration (IC50) was 0.759 µM.

In the case of `C/C=C/c1ccc(C2[C@@H]3CN(C(=O)Nc4ccc(C(F)(F)F)cc4)C[C@H]2N3)cc1` (some centres not stated), the IC50 was 13.7 µM and 10.6 µM.

Turning to `C(=C\c1ccc(C2[C@H]3CNC[C@@H]2N3Cc2nccs2)cc1)/c1ccccc1` (some centres not stated), the IC50 was 60.4 µM.

Consider `O=S(=O)(Cc1ccccc1)N1C[C@@H]2N[C@H](C1)C2c1ccc(-c2ccccc2)cc1` (some centres not stated), for which the half-maximal inhibitory concentration (IC50) is 59.7 µM.

As for `O=C(C1CCCCC1)N1CC[C@@H]2[C@H]1c1cc(C#Cc3ccc(F)cc3)ccc1N[C@@H]2CO`, the IC50 was 45.2 µM.

In the case of `Cc1cccc(-c2ccc(C3[C@H]4CNC[C@@H]3N4C(=O)Nc3ccc(F)cc3)cc2)c1` (some centres not stated), the IC50 was 30.6 µM.

As for `O=C(Nc1ccc(C(F)(F)F)cc1)N1C[C@@H]2N[C@H](C1)C2c1ccc(-c2ccccc2)cc1` (some centres not stated), the IC50 was 3.18 µM and 4.52 µM.

For `N#Cc1cccc(-c2ccc(C3[C@H]4CNC[C@@H]3N4Cc3cccc(F)c3)cc2)c1` (some centres not stated), the IC50 was 55.7 µM.

As for `Fc1cccc(CN2C[C@@H]3N[C@H](C2)[C@@H]3c2ccc(-c3cccc(F)c3)cc2)c1`, the IC50 is 6.05 µM.

In the case of `Cc1ccccc1-c1ccc(C2[C@H]3CNC[C@@H]2N3S(=O)(=O)c2ccccc2C)cc1` (some centres not stated), the IC50 was 31.8 µM.

In the case of `CCCC#Cc1ccc([C@@H]2[C@H](CO)N3CCCCN(S(=O)(=O)c4ccccc4C)C[C@@H]23)cc1`, the IC50 is 24 µM.

Regarding `Cc1cccc(-c2ccc(C3[C@@H]4CN(C(=O)C5CCCCC5)C[C@H]3N4)cc2)c1` (some centres not stated), the half-inhibitory concentration (IC50) is 26.6 µM.

Consider `CCCN(C)C[C@@H]1OCCCC[C@@H](C)Oc2ccc(NC(=O)Nc3ccc(C(F)(F)F)cc3)cc2C(=O)N([C@H](C)CO)C[C@H]1C`, for which the IC50 was 31.6 µM.

On to `O=S(=O)(c1ccc(F)cc1)N1C[C@@H]2N[C@H](C1)C2c1ccc(/C=C/c2ccccc2)cc1` (some centres not stated), for which the concentration for half-maximal inhibition (IC50) is 8.8 µM.

Consider `C/C=C/c1ccc(C2[C@@H]3CN(Cc4ccc5c(c4)OCO5)C[C@H]2N3)cc1` (some centres not stated), for which the IC50 was 46.3 µM and 55.8 µM.

For `COc1cccc(CN2C[C@@H]3N[C@H](C2)C3c2ccc(-c3cccc(C#N)c3)cc2)c1` (some centres not stated), the IC50 was 75.5 µM and 30.6 µM.

As for `Cc1ccccc1-c1ccc([C@H]2[C@@H](CO)N3CCCCN(C(=O)Nc4cccc(F)c4)C[C@H]23)cc1`, the IC50 was 10.6 µM.

With `COc1cccc(-c2ccc(C3[C@@H]4CN(S(=O)(=O)Cc5ccccc5)C[C@H]3N4)cc2)c1` (some centres not stated), the IC50 is 52.6 µM.

For the compound `OC[C@H]1Nc2ccc(-c3ccc(F)cc3)cc2[C@@H]2[C@H]1CCN2Cc1ccc(F)cc1`, the IC50 is 26.8 µM.

In the case of `COc1ccc(-c2ccc(C3[C@H]4CNC[C@@H]3N4Cc3ccc4c(c3)OCO4)cc2)cc1` (some centres not stated), the IC50 was 53.1 µM.

Consider `O=C(NC[C@H]1N[C@H](CO)[C@@H]1c1ccc(C2=CCCCC2)cc1)c1ccc(F)cc1`, for which the IC50 is 29.1 µM.

Take `O=S(=O)(Cc1ccccc1)N1CCCCN2[C@H](CO)[C@H](c3ccc(-c4ccc(F)cc4)cc3)[C@H]2C1`: the IC50 was 42.5 µM.

As for `Cc1cccc(-c2ccc(C3[C@@H]4CN(Cc5ccccc5)C[C@H]3N4)cc2)c1` (some centres not stated), the IC50 was 17.1 µM.

As to `O=C(Nc1ccc(F)cc1)N1C[C@@H]2N[C@H](C1)C2c1ccc(/C=C/c2ccccc2)cc1` (some centres not stated), the IC50 is 5.52 µM and 10 µM.

With `CCCC#Cc1ccc([C@H]2[C@@H](CO)N3CCCCN(S(=O)(=O)Cc4ccccc4)C[C@H]23)cc1`, the IC50 was 34.2 µM.

As to `O=C(C[C@@H]1CC[C@@H]2[C@H](COC[C@H](O)CN2C(=O)Nc2ccc(Cl)c(Cl)c2)O1)NC1CCC1`, the IC50 is 20.3 µM.

For `O=C(Nc1ccc(C(F)(F)F)cc1)N1C[C@@H]2N[C@H](C1)C2c1ccc(-c2cccc(F)c2)cc1` (some centres not stated), the IC50 was 2.63 µM and 2.5 µM.

For the compound `N#Cc1ccc(-c2ccc3c(c2)[C@H]2[C@H](CCN2Cc2ccc4c(c2)OCO4)[C@H](CO)N3)cc1`, the IC50 was 23.4 µM.

On to `N#Cc1cccc(-c2ccc(C3[C@@H]4CN(Cc5ccccc5)C[C@H]3N4)cc2)c1` (some centres not stated), for which the IC50 was 79.6 µM.

Take `N#Cc1ccc(-c2ccc3c(c2)[C@@H]2[C@@H](CCN2Cc2ccc4c(c2)OCO4)[C@@H](CO)N3)cc1`: the 50% inhibitory concentration (IC50) is 32.3 µM.

Consider `COc1ccc(-c2ccc(C3[C@@H]4CN(Cc5ccccn5)C[C@H]3N4)cc2)cc1` (some centres not stated), for which the IC50 was 70.1 µM.

`CC(C)CC#Cc1ccc([C@@H]2[C@@H](CO)N3CCCCN(C(=O)Nc4ccccc4)C[C@H]23)cc1`: the IC50 was 10.9 µM.
